According to PMC6009956, “Design, synthesis and biological activity of N^4-phenylsubstituted-7H-pyrrolo[2,3-d]pyrimidin-4-amines as dual inhibitors of aurora kinase A and epidermal growth factor receptor kinase” (Journal of Enzyme Inhibition and Medicinal Chemistry, 2017):
Read-outs that look alike come from different tables or passages of the source. Values belong to the compound of their own block, whether it stands above or below them.

Key:
[1] = target: EGFR (Homo sapiens, UniProt P00533); assay: ADP-Glo kinase assay, EGFR; format: biochemical; design: purchased BPS Bioscience (assay run externally by the vendor)
[2] = target: T1, aurora A kinase (AURKA) (Homo sapiens, UniProt O14965); assay: ADP-Glo kinase assay, Aurora A; format: biochemical
T1 construct: purchased BPS Bioscience (assay run externally by the vendor)
T1 sequence (O14965 1-403): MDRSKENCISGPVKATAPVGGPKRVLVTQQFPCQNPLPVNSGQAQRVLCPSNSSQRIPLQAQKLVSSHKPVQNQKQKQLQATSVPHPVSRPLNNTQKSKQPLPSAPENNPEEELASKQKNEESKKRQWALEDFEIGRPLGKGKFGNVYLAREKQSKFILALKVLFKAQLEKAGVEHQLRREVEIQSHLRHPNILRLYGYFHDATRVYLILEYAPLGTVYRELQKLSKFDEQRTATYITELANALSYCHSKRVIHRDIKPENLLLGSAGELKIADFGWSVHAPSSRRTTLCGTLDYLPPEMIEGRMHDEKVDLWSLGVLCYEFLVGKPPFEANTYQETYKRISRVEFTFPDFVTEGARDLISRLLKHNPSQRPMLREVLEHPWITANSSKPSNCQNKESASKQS

[3] = 10 µM ATP, triplicate, read-out: EGFR IC50 ± SD
[4] = 10 µM ATP, triplicate, read-out: AURKA IC50 ± SD
[5] = 10 µM ATP/0.2 mg/ml Kemptide, read-out: Aurora A IC50 (dose-response curve, supplement)

Sequence of EGFR (P00533 25-1210): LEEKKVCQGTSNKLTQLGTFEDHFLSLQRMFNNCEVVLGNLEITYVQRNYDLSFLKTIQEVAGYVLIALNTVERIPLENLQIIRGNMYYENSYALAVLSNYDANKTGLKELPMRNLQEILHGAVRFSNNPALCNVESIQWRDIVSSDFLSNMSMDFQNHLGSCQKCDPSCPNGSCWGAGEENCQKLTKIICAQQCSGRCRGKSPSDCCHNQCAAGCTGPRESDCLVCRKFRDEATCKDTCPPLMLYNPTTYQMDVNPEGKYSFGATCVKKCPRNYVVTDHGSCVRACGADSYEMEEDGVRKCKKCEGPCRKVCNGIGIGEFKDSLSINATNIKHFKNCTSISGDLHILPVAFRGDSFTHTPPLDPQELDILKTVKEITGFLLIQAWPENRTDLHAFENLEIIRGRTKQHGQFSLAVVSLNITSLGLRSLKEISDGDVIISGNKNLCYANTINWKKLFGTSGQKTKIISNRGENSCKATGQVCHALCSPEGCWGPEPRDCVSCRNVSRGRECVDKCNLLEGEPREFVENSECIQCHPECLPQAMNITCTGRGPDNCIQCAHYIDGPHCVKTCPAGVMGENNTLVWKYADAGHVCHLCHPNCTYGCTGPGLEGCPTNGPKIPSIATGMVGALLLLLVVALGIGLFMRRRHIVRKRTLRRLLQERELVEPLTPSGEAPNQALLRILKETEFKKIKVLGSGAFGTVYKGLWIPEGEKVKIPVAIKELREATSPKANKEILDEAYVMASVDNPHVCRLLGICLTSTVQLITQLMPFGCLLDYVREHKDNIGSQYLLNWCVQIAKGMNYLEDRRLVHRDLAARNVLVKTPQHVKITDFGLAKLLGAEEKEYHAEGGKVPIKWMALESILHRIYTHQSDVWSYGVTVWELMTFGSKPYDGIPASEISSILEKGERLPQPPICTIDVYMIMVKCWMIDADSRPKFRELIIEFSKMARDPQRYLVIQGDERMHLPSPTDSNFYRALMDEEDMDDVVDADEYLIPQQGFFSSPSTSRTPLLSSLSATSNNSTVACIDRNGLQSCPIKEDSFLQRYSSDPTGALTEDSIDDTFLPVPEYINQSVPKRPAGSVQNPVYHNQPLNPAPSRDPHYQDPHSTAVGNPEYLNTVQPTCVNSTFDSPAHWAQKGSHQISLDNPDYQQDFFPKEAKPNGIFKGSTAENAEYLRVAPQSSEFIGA

- EGFR inhibition (in words) [1]: single-digit nanomolar EGFR inhibition
- IC50 [1, 3]: 0.0067 ± 0.00025 µM
- EGFR % Activity Set1 ([1]; Log[nM] 0): 51%
- EGFR % Activity Set2 ([1]; Log[nM] 0): 59%
- EGFR % Activity Set3 ([1]; Log[nM] 0): 58%
- EGFR % Activity Set1 ([1]; Log[nM] 1.0): 43%
- EGFR % Activity Set2 ([1]; Log[nM] 1.0): 46%
- EGFR % Activity Set3 ([1]; Log[nM] 1.0): 48%
- EGFR % Activity Set1 ([1]; Log[nM] 1.5): 14%
- EGFR % Activity Set2 ([1]; Log[nM] 1.5): 16%
- EGFR % Activity Set3 ([1]; Log[nM] 1.5): 16%
- EGFR % Activity Set1 ([1]; Log[nM] 2.0): 8%
- EGFR % Activity Set2 ([1]; Log[nM] 2.0): 9%
- EGFR % Activity Set3 ([1]; Log[nM] 2.0): 9%
- EGFR % Activity Set1 ([1]; Log[nM] 2.5): 3%
- EGFR % Activity Set2 ([1]; Log[nM] 2.5): 4%
- EGFR % Activity Set3 ([1]; Log[nM] 2.5): 5%
- EGFR % Activity Set1 ([1]; Log[nM] 3.0): 2%
- EGFR % Activity Set2 ([1]; Log[nM] 3.0): 2%
- EGFR % Activity Set3 ([1]; Log[nM] 3.0): 2%
- EGFR % Activity Set1 ([1]; Log[nM] 3.5): 1%
- EGFR % Activity Set2 ([1]; Log[nM] 3.5): 1%
- EGFR % Activity Set3 ([1]; Log[nM] 3.5): 1%
- EGFR % Activity Set1 ([1]; Log[nM] 4.0): 0%
- EGFR % Activity Set2 ([1]; Log[nM] 4.0): 0%
- EGFR % Activity Set3 ([1]; Log[nM] 4.0): 1%
- EGFR % Activity Set1 ([1]; Log[nM] 4.5): 0%
- EGFR % Activity Set2 ([1]; Log[nM] 4.5): 0%
- EGFR % Activity Set3 ([1]; Log[nM] 4.5): 0%
- EGFR % Activity Set1 ([1]; Log[nM] 5.0): 0%
- EGFR % Activity Set2 ([1]; Log[nM] 5.0): 3%
- EGFR % Activity Set3 ([1]; Log[nM] 5.0): 1%
- IC50 [2, 4]: 3.91 ± 0.11 µM
- IC50 [2, 5]: 3.9 µM
- Aurora A % Activity Set1 ([2]; Log[nM] 0): 95%
- Aurora A % Activity Set2 ([2]; Log[nM] 0): 97%
- Aurora A % Activity Set3 ([2]; Log[nM] 0): 103%
- Aurora A % Activity Set1 ([2]; Log[nM] 1.0): 104%
- Aurora A % Activity Set2 ([2]; Log[nM] 1.0): 95%
- Aurora A % Activity Set3 ([2]; Log[nM] 1.0): 97%
- Aurora A % Activity Set1 ([2]; Log[nM] 1.5): 98%
- Aurora A % Activity Set2 ([2]; Log[nM] 1.5): 101%
- Aurora A % Activity Set3 ([2]; Log[nM] 1.5): 102%
- Aurora A % Activity Set1 ([2]; Log[nM] 2.0): 104%
- Aurora A % Activity Set2 ([2]; Log[nM] 2.0): 107%
- Aurora A % Activity Set3 ([2]; Log[nM] 2.0): 105%
- Aurora A % Activity Set1 ([2]; Log[nM] 2.5): 103%
- Aurora A % Activity Set2 ([2]; Log[nM] 2.5): 108%
- Aurora A % Activity Set3 ([2]; Log[nM] 2.5): 106%
- Aurora A % Activity Set1 ([2]; Log[nM] 3.0): 91%
- Aurora A % Activity Set2 ([2]; Log[nM] 3.0): 104%
- Aurora A % Activity Set3 ([2]; Log[nM] 3.0): 91%
- Aurora A % Activity Set1 ([2]; Log[nM] 3.5): 55%
- Aurora A % Activity Set2 ([2]; Log[nM] 3.5): 51%
- Aurora A % Activity Set3 ([2]; Log[nM] 3.5): 58%
- Aurora A % Activity Set1 ([2]; Log[nM] 4.0): 16%
- Aurora A % Activity Set2 ([2]; Log[nM] 4.0): 21%
- Aurora A % Activity Set3 ([2]; Log[nM] 4.0): 19%
- Aurora A % Activity Set1 ([2]; Log[nM] 4.5): 11%
- Aurora A % Activity Set2 ([2]; Log[nM] 4.5): 12%
- Aurora A % Activity Set3 ([2]; Log[nM] 4.5): 11%
- Aurora A % Activity Set1 ([2]; Log[nM] 5.0): 11%
- Aurora A % Activity Set2 ([2]; Log[nM] 5.0): 12%
- Aurora A % Activity Set3 ([2]; Log[nM] 5.0): 13%
SMILES: Clc1ccc(Nc2ncnc3[nH]ccc23)cc1Cl [Compound 5, N^4-(3,4-dichlorophenyl)-7H-pyrrolo[2,3-d]pyrimidine-4-amine]

- IC50 [1, 3]: 0.667 ± 0.142 µM
- IC50 ([1]; 10 µM ATP/0.2 mg/ml Poly-Glu-Tyr, read-out: EGFR IC50 (dose-response curve, supplement)): 0.693 µM
- EGFR % Activity Set1 ([1]; Log[nM] 0): 103%
- EGFR % Activity Set2 ([1]; Log[nM] 0): 98%
- EGFR % Activity Set3 ([1]; Log[nM] 0): 105%
- EGFR % Activity Set1 ([1]; Log[nM] 1.0): 112%
- EGFR % Activity Set2 ([1]; Log[nM] 1.0): 109%
- EGFR % Activity Set3 ([1]; Log[nM] 1.0): 103%
- EGFR % Activity Set1 ([1]; Log[nM] 1.5): 113%
- EGFR % Activity Set2 ([1]; Log[nM] 1.5): 108%
- EGFR % Activity Set3 ([1]; Log[nM] 1.5): 95%
- EGFR % Activity Set1 ([1]; Log[nM] 2.0): 95%
- EGFR % Activity Set2 ([1]; Log[nM] 2.0): 88%
- EGFR % Activity Set3 ([1]; Log[nM] 2.0): 81%
- EGFR % Activity Set1 ([1]; Log[nM] 2.5): 74%
- EGFR % Activity Set2 ([1]; Log[nM] 2.5): 63%
- EGFR % Activity Set3 ([1]; Log[nM] 2.5): 67%
- EGFR % Activity Set1 ([1]; Log[nM] 3.0): 36%
- EGFR % Activity Set2 ([1]; Log[nM] 3.0): 35%
- EGFR % Activity Set3 ([1]; Log[nM] 3.0): 43%
- EGFR % Activity Set1 ([1]; Log[nM] 3.5): 18%
- EGFR % Activity Set2 ([1]; Log[nM] 3.5): 16%
- EGFR % Activity Set3 ([1]; Log[nM] 3.5): 23%
- EGFR % Activity Set1 ([1]; Log[nM] 4.0): 8%
- EGFR % Activity Set2 ([1]; Log[nM] 4.0): 7%
- EGFR % Activity Set3 ([1]; Log[nM] 4.0): 10%
- EGFR % Activity Set1 ([1]; Log[nM] 4.5): 3%
- EGFR % Activity Set2 ([1]; Log[nM] 4.5): 4%
- EGFR % Activity Set3 ([1]; Log[nM] 4.5): 3%
- EGFR % Activity Set1 ([1]; Log[nM] 5.0): 1%
- EGFR % Activity Set2 ([1]; Log[nM] 5.0): 1%
- EGFR % Activity Set3 ([1]; Log[nM] 5.0): 2%
- IC50 [2, 4]: 5.45 ± 0.36 µM
- IC50 [2, 5]: 5.4 µM
- Aurora A % Activity Set1 ([2]; Log[nM] 0): 101%
- Aurora A % Activity Set2 ([2]; Log[nM] 0): 103%
- Aurora A % Activity Set3 ([2]; Log[nM] 0): 105%
- Aurora A % Activity Set1 ([2]; Log[nM] 1.0): 114%
- Aurora A % Activity Set2 ([2]; Log[nM] 1.0): 103%
- Aurora A % Activity Set3 ([2]; Log[nM] 1.0): 107%
- Aurora A % Activity Set1 ([2]; Log[nM] 1.5): 111%
- Aurora A % Activity Set2 ([2]; Log[nM] 1.5): 103%
- Aurora A % Activity Set3 ([2]; Log[nM] 1.5): 109%
- Aurora A % Activity Set1 ([2]; Log[nM] 2.0): 102%
- Aurora A % Activity Set2 ([2]; Log[nM] 2.0): 107%
- Aurora A % Activity Set3 ([2]; Log[nM] 2.0): 114%
- Aurora A % Activity Set1 ([2]; Log[nM] 2.5): 99%
- Aurora A % Activity Set2 ([2]; Log[nM] 2.5): 102%
- Aurora A % Activity Set3 ([2]; Log[nM] 2.5): 110%
- Aurora A % Activity Set1 ([2]; Log[nM] 3.0): 87%
- Aurora A % Activity Set2 ([2]; Log[nM] 3.0): 90%
- Aurora A % Activity Set3 ([2]; Log[nM] 3.0): 91%
- Aurora A % Activity Set1 ([2]; Log[nM] 3.5): 63%
- Aurora A % Activity Set2 ([2]; Log[nM] 3.5): 66%
- Aurora A % Activity Set3 ([2]; Log[nM] 3.5): 61%
- Aurora A % Activity Set1 ([2]; Log[nM] 4.0): 32%
- Aurora A % Activity Set2 ([2]; Log[nM] 4.0): 29%
- Aurora A % Activity Set3 ([2]; Log[nM] 4.0): 30%
- Aurora A % Activity Set1 ([2]; Log[nM] 4.5): 16%
- Aurora A % Activity Set2 ([2]; Log[nM] 4.5): 15%
- Aurora A % Activity Set3 ([2]; Log[nM] 4.5): 13%
- Aurora A % Activity Set1 ([2]; Log[nM] 5.0): 9%
- Aurora A % Activity Set2 ([2]; Log[nM] 5.0): 9%
- Aurora A % Activity Set3 ([2]; Log[nM] 5.0): 9%
SMILES: Cc1ccc(Nc2ncnc3[nH]ccc23)cc1 [Compound 9, N^4-(4-methylphenyl)-7H-pyrrolo[2,3-d]pyrimidin-4-amine]
